Key:
Test in all cases: KINOMEscan competition binding
Conditions in all cases: compound 10.0 µM
STK16 (human) = STK16 (human) (UniProt O75716)
EPHA7 (human) = EPHA7 (human) (UniProt Q15375)
STK32C (human) = STK32C (human) (UniProt Q86UX6)
MAP3K7 (human) = MAP3K7 (human) (UniProt O43318)
MAP3K4 (human) = MAP3K4 (human) (UniProt Q9Y6R4)
NEK6 (human) = NEK6 (human) (UniProt Q9HC98)
TNK2 (human) = TNK2 (human) (UniProt Q07912)
NEK5 (human) = NEK5 (human) (UniProt Q6P3R8)
SGK110 (human) = SGK110 (human) (UniProt P0C264)
NIM1 (human) = NIM1 (human) (UniProt Q8IY84)
BTK (human) = BTK (human) (UniProt Q06187)
PKMYT1 (human) = PKMYT1 (human) (UniProt Q99640)
[1] = test system: ABL1 (human), P00519 [Y253F]
MAPK4 (human) = MAPK4 (human) (UniProt P31152)
AKT3 (human) = AKT3 (human) (UniProt Q9Y243)
EPHA2 (human) = EPHA2 (human) (UniProt P29317)
ROS1 (human) = ROS1 (human) (UniProt P08922)
PDGFRB (human) = PDGFRB (human) (UniProt P09619)
PTK2 (human) = PTK2 (human) (UniProt Q05397)
TYRO3 (human) = TYRO3 (human) (UniProt Q06418)
PLK1 (human) = PLK1 (human) (UniProt P53350)
PRKG2 (human) = PRKG2 (human) (UniProt Q13237)
FRK (human) = FRK (human) (UniProt P42685)
STK11 (human) = STK11 (human) (UniProt Q15831)
PIP5K1A (human) = PIP5K1A (human) (UniProt Q99755)
RIOK3 (human) = RIOK3 (human) (UniProt O14730)
PRKX (human) = PRKX (human) (UniProt P51817)
STK17A (human) = STK17A (human) (UniProt Q9UEE5)
MAPK7 (human) = MAPK7 (human) (UniProt Q13164)
SIK3 (human) = SIK3 (human) (UniProt Q9Y2K2)
ABL2 (human) = ABL2 (human) (UniProt P42684)
TNNI3K (human) = TNNI3K (human) (UniProt Q59H18)
FES (human) = FES (human) (UniProt P07332)
MYO3B (human) = MYO3B (human) (UniProt Q8WXR4)
AAK1 (human) = AAK1 (human) (UniProt Q2M2I8)
PIK3CA (human) = PIK3CA (human) (UniProt P42336)
MYLK3 (human) = MYLK3 (human) (UniProt Q32MK0)
CAMK2B (human) = CAMK2B (human) (UniProt Q13554)
FYN (human) = FYN (human) (UniProt P06241)
NEK4 (human) = NEK4 (human) (UniProt P51957)
RPS6KB1 (human) = RPS6KB1 (human) (UniProt P23443)

Chain of ABL2 (human) (P42684 whole entry, looked up): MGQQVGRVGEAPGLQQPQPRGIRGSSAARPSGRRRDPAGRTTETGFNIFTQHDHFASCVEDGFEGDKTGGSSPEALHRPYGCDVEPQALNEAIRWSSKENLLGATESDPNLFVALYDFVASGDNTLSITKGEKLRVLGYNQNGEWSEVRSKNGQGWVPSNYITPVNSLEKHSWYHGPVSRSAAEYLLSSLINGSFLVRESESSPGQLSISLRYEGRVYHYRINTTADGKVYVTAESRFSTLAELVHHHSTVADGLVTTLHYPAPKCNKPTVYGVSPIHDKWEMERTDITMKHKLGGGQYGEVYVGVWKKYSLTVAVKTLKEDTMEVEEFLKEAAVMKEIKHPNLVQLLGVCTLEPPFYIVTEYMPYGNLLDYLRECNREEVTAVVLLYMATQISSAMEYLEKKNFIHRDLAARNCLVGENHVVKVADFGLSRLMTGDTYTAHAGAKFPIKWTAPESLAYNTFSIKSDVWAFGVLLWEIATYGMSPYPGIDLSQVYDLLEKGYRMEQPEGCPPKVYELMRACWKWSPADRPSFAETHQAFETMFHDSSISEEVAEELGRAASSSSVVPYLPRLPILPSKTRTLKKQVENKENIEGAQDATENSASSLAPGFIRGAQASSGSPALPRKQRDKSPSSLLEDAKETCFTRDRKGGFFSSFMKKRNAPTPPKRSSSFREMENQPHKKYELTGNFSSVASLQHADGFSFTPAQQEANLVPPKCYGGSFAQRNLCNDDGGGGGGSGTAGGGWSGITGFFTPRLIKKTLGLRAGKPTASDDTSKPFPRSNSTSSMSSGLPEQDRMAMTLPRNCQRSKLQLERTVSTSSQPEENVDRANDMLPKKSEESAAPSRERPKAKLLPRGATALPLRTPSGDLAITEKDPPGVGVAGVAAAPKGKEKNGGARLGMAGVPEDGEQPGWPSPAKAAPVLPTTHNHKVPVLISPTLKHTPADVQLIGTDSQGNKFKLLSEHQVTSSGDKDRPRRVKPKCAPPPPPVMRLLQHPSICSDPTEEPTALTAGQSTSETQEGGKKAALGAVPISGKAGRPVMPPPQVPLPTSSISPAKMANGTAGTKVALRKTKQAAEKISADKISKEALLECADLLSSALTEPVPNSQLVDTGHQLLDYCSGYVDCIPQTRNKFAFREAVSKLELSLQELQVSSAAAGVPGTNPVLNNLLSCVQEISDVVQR
Chain of MAPK7 (human) (Q13164 whole entry, looked up): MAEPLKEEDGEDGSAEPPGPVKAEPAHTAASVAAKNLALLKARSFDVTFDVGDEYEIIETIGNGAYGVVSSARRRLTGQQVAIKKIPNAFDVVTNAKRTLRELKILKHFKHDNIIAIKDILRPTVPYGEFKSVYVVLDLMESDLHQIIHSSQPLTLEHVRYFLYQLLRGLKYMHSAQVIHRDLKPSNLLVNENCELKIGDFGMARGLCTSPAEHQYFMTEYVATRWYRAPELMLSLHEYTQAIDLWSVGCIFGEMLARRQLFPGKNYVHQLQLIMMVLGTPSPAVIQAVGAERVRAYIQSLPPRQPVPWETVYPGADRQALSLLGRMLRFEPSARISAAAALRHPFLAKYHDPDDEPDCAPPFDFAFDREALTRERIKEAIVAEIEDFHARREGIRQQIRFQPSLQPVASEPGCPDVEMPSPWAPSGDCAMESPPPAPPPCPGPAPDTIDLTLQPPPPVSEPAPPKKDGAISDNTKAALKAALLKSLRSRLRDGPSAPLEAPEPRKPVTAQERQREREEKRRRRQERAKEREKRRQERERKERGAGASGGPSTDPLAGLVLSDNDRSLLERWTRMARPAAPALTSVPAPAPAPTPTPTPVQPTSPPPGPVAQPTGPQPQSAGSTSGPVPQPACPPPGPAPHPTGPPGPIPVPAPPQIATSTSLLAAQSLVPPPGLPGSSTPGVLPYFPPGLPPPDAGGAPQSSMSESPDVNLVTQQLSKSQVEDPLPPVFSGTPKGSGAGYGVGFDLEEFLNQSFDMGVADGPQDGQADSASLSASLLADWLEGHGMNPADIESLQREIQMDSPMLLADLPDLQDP
Chain of PLK1 (human) (P53350 whole entry, looked up): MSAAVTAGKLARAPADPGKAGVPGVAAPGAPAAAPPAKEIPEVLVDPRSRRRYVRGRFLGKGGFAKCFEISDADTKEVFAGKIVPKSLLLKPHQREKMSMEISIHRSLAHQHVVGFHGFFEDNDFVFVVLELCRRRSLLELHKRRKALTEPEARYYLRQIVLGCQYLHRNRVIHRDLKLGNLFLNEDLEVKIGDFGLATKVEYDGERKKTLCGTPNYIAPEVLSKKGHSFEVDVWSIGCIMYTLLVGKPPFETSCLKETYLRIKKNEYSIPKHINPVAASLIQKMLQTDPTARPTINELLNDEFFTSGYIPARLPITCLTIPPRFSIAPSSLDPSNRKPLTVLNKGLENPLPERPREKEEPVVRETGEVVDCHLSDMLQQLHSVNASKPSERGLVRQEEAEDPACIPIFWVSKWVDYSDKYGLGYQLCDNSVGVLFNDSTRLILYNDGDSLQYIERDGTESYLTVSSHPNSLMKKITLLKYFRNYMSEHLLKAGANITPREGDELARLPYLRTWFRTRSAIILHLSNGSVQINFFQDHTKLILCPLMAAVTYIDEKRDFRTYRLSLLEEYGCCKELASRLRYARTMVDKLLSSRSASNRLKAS
Chain of AKT3 (human) (Q9Y243 whole entry, looked up): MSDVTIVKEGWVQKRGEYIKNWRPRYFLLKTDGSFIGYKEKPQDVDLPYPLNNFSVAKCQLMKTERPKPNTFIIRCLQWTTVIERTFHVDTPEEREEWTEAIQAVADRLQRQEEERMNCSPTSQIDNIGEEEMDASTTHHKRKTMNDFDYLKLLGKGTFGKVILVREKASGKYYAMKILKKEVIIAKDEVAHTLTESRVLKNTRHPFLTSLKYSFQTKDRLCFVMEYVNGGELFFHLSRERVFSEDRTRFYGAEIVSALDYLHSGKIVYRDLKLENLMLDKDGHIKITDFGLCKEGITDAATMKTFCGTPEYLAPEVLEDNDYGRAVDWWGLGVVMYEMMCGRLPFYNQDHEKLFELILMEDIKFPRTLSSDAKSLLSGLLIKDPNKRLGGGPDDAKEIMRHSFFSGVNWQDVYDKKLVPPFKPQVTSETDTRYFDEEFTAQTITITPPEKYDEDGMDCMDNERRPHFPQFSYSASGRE
Chain of EPHA7 (human) (Q15375 whole entry, looked up): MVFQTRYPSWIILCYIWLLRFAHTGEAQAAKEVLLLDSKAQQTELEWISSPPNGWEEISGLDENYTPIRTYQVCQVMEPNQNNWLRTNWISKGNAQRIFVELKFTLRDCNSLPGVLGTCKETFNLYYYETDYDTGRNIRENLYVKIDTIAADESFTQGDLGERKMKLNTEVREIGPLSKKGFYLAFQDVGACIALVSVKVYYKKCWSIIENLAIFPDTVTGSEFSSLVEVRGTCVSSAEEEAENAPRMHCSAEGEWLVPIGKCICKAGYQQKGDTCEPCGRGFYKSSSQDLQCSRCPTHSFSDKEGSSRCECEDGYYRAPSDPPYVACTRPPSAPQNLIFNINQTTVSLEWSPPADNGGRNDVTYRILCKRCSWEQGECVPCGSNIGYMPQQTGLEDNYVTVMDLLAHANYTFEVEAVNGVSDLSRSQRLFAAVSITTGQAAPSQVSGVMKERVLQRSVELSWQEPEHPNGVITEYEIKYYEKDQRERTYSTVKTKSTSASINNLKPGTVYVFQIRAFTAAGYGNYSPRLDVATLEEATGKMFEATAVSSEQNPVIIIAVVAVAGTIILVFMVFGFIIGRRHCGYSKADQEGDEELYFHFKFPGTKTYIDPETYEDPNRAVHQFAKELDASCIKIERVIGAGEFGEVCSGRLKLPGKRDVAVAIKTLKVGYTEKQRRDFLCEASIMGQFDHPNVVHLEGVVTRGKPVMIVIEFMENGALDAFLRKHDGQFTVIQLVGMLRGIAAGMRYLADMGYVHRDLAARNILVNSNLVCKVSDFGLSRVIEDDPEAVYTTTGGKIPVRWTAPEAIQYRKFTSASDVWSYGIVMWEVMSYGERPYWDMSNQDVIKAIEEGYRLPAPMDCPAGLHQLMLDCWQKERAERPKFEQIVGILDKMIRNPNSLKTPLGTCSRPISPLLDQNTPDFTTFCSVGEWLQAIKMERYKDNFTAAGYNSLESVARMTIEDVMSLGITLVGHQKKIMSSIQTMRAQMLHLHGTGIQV
Chain of RIOK3 (human) (O14730 whole entry, looked up): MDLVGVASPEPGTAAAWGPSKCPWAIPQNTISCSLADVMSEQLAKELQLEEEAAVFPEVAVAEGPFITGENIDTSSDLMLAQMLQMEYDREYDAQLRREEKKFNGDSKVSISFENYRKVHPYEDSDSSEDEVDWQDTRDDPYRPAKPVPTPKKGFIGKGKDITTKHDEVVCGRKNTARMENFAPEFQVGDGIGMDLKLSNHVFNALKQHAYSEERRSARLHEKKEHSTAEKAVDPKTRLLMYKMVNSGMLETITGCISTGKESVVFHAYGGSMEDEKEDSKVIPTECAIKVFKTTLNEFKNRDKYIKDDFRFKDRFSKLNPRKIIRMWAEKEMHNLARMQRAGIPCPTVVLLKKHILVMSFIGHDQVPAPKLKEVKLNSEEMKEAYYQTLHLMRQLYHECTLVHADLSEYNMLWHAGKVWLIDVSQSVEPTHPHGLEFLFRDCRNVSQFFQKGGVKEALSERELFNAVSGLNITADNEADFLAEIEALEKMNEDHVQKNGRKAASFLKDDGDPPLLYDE
Chain of NEK6 (human) (Q9HC98 whole entry, looked up): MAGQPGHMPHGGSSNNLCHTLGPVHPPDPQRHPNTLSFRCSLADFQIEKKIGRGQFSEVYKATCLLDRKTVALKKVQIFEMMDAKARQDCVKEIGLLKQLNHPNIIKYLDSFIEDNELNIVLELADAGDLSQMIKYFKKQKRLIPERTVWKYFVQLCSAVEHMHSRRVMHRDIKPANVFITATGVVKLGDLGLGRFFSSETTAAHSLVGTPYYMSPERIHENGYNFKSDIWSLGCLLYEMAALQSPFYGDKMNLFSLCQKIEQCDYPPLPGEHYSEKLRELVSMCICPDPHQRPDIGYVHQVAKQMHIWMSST

## CCN(CC)CCCCNc1ncc2c(n1)N(C)C(=O)N(c1c(Cl)c(OC)cc(OC)c1Cl)C2
STK16 (human)
  kinase still bound, per cent of control: 100%
EPHA7 (human)
  kinase still bound, per cent of control: 100%
STK32C (human)
  kinase still bound, per cent of control: 100%
MAP3K7 (human)
  kinase still bound, per cent of control: 100%
MAP3K4 (human)
  kinase still bound, per cent of control: 5.3%
NEK6 (human)
  kinase still bound, per cent of control: 100%
TNK2 (human)
  kinase still bound, per cent of control: 100%
NEK5 (human)
  kinase still bound, per cent of control: 100%
SGK110 (human)
  kinase still bound, per cent of control: 100%
NIM1 (human)
  kinase still bound, per cent of control: 100%
BTK (human)
  kinase still bound, per cent of control: 100%
PKMYT1 (human)
  kinase still bound, per cent of control: 100%
[1]
  kinase still bound, per cent of control: 100%
MAPK4 (human)
  kinase still bound, per cent of control: 100%
AKT3 (human)
  kinase still bound, per cent of control: 100%
EPHA2 (human)
  kinase still bound, per cent of control: 100%
ROS1 (human)
  kinase still bound, per cent of control: 100%
PDGFRB (human)
  kinase still bound, per cent of control: 21%
PTK2 (human)
  kinase still bound, per cent of control: 100%
TYRO3 (human)
  kinase still bound, per cent of control: 100%
PLK1 (human)
  kinase still bound, per cent of control: 100%
PRKG2 (human)
  kinase still bound, per cent of control: 100%
FRK (human)
  kinase still bound, per cent of control: 100%
STK11 (human)
  kinase still bound, per cent of control: 100%
PIP5K1A (human)
  kinase still bound, per cent of control: 100%
RIOK3 (human)
  kinase still bound, per cent of control: 100%
PRKX (human)
  kinase still bound, per cent of control: 100%
STK17A (human)
  kinase still bound, per cent of control: 100%
MAPK7 (human)
  kinase still bound, per cent of control: 4.1%
SIK3 (human)
  kinase still bound, per cent of control: 100%
ABL2 (human)
  kinase still bound, per cent of control: 100%
TNNI3K (human)
  kinase still bound, per cent of control: 100%
FES (human)
  kinase still bound, per cent of control: 100%
MYO3B (human)
  kinase still bound, per cent of control: 100%
AAK1 (human)
  kinase still bound, per cent of control: 100%
PIK3CA (human)
  kinase still bound, per cent of control: 100%
MYLK3 (human)
  kinase still bound, per cent of control: 100%
CAMK2B (human)
  kinase still bound, per cent of control: 100%
FYN (human)
  kinase still bound, per cent of control: 100%

## CNC(=O)c1cc(Oc2ccc(NC(=O)Nc3ccc(Cl)c(C(F)(F)F)c3)cc2)ccn1
STK16 (human)
  kinase still bound, per cent of control: 100%
EPHA7 (human)
  kinase still bound, per cent of control: 25%
STK32C (human)
  kinase still bound, per cent of control: 100%
MAP3K7 (human)
  kinase still bound, per cent of control: 6.2%
MAP3K4 (human)
  kinase still bound, per cent of control: 98%
NEK6 (human)
  kinase still bound, per cent of control: 100%
TNK2 (human)
  kinase still bound, per cent of control: 96%
NEK5 (human)
  kinase still bound, per cent of control: 90%
SGK110 (human)
  kinase still bound, per cent of control: 94%
NIM1 (human)
  kinase still bound, per cent of control: 97%
PKMYT1 (human)
  kinase still bound, per cent of control: 94%
MAPK4 (human)
  kinase still bound, per cent of control: 100%
AKT3 (human)
  kinase still bound, per cent of control: 100%
EPHA2 (human)
  kinase still bound, per cent of control: 18%
ROS1 (human)
  kinase still bound, per cent of control: 83%
PDGFRB (human)
  kinase still bound, per cent of control: 0%
PTK2 (human)
  kinase still bound, per cent of control: 99%
TYRO3 (human)
  kinase still bound, per cent of control: 80%
PLK1 (human)
  kinase still bound, per cent of control: 100%
PRKG2 (human)
  kinase still bound, per cent of control: 96%
NEK4 (human)
  kinase still bound, per cent of control: 81%
STK11 (human)
  kinase still bound, per cent of control: 76%
PIP5K1A (human)
  kinase still bound, per cent of control: 100%
RIOK3 (human)
  kinase still bound, per cent of control: 100%
PRKX (human)
  kinase still bound, per cent of control: 100%
STK17A (human)
  kinase still bound, per cent of control: 45%
MAPK7 (human)
  kinase still bound, per cent of control: 85%
SIK3 (human)
  kinase still bound, per cent of control: 100%
ABL2 (human)
  kinase still bound, per cent of control: 35%
TNNI3K (human)
  kinase still bound, per cent of control: 19%
RPS6KB1 (human)
  kinase still bound, per cent of control: 63%
FES (human)
  kinase still bound, per cent of control: 74%
MYO3B (human)
  kinase still bound, per cent of control: 28%
AAK1 (human)
  kinase still bound, per cent of control: 100%
CAMK2B (human)
  kinase still bound, per cent of control: 84%
FYN (human)
  kinase still bound, per cent of control: 48%

## C[C@@H](Oc1cc(-c2cnn(C3CCNCC3)c2)cnc1N)c1c(Cl)ccc(F)c1Cl
STK16 (human)
  kinase still bound, per cent of control: 63%
EPHA7 (human)
  kinase still bound, per cent of control: 0.3%
STK32C (human)
  kinase still bound, per cent of control: 100%
MAP3K7 (human)
  kinase still bound, per cent of control: 8.2%
MAP3K4 (human)
  kinase still bound, per cent of control: 34%
NEK6 (human)
  kinase still bound, per cent of control: 27%
TNK2 (human)
  kinase still bound, per cent of control: 2.8%
NEK5 (human)
  kinase still bound, per cent of control: 63%
SGK110 (human)
  kinase still bound, per cent of control: 3.4%
NIM1 (human)
  kinase still bound, per cent of control: 12%
PKMYT1 (human)
  kinase still bound, per cent of control: 100%
MAPK4 (human)
  kinase still bound, per cent of control: 84%
AKT3 (human)
  kinase still bound, per cent of control: 100%
EPHA2 (human)
  kinase still bound, per cent of control: 1.5%
ROS1 (human)
  kinase still bound, per cent of control: 1.1%
PDGFRB (human)
  kinase still bound, per cent of control: 44%
PTK2 (human)
  kinase still bound, per cent of control: 0%
PLK1 (human)
  kinase still bound, per cent of control: 83%
PRKG2 (human)
  kinase still bound, per cent of control: 89%
FRK (human)
  kinase still bound, per cent of control: 15%
NEK4 (human)
  kinase still bound, per cent of control: 25%
STK11 (human)
  kinase still bound, per cent of control: 57%
PIP5K1A (human)
  kinase still bound, per cent of control: 0.1%
RIOK3 (human)
  kinase still bound, per cent of control: 3.4%
PRKX (human)
  kinase still bound, per cent of control: 94%
STK17A (human)
  kinase still bound, per cent of control: 100%
MAPK7 (human)
  kinase still bound, per cent of control: 0.1%
ABL2 (human)
  kinase still bound, per cent of control: 0.85%
RPS6KB1 (human)
  kinase still bound, per cent of control: 1.8%
MYO3B (human)
  kinase still bound, per cent of control: 100%
AAK1 (human)
  kinase still bound, per cent of control: 21%
PIK3CA (human)
  kinase still bound, per cent of control: 100%
MYLK3 (human)
  kinase still bound, per cent of control: 100%
FYN (human)
  kinase still bound, per cent of control: 10%
